Measured values reported in PubChem BioAssay (NCI).
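Tested at 5 concentrations; 48 h exposure; 96-well plates; endpoints linearly interpolated, else capped at highest concentration. GI50 marks 50% less growth. The concentration for full growth arrest is given as TGI.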

Columns and labels:
Test in all cases: inhibition of tumour cell growth, NCI panel, 48 h
SF-295 CNS = test system: SF-295 CNS
HCT-15 colon = test system: HCT-15 colon
CAKI-1 renal = test system: CAKI-1 renal
SR leukemia = test system: SR leukemia
RPMI-8226 leukemia = test system: RPMI-8226 leukemia
ACHN renal = test system: ACHN renal
LOX IMVI melanoma = test system: LOX IMVI melanoma
HL-60(TB) leukemia = test system: HL-60(TB) leukemia
SF-268 CNS = test system: SF-268 CNS
OVCAR-4 ovarian = test system: OVCAR-4 ovarian
SNB-75 CNS = test system: SNB-75 CNS
NCI-H460 lung = test system: NCI-H460 lung
NCI-H522 lung = test system: NCI-H522 lung
EKVX NSCLC = test system: EKVX NSCLC
HCC-2998 colon = test system: HCC-2998 colon
HCT-116 colon = test system: HCT-116 colon
SN12C renal = test system: SN12C renal
UACC-257 melanoma = test system: UACC-257 melanoma
SF-539 CNS = test system: SF-539 CNS
TK-10 renal = test system: TK-10 renal
786-0 renal = test system: 786-0 renal
KM12 colon = test system: KM12 colon
HOP-92 NSCLC = test system: HOP-92 NSCLC
NCI/ADR-RES ovarian = test system: NCI/ADR-RES ovarian
SNB-19 CNS = test system: SNB-19 CNS
UACC-62 melanoma = test system: UACC-62 melanoma
HT29 colon = test system: HT29 colon
UO-31 renal = test system: UO-31 renal
MCF7 breast = test system: MCF7 breast
M14 melanoma = test system: M14 melanoma
OVCAR-3 ovarian = test system: OVCAR-3 ovarian
A498 renal = test system: A498 renal
HOP-62 NSCLC = test system: HOP-62 NSCLC
CCRF-CEM leukemia = test system: CCRF-CEM leukemia
NCI-H23 lung = test system: NCI-H23 lung
RXF 393 renal = test system: RXF 393 renal
PC-3 prostate = test system: PC-3 prostate
SK-MEL-28 melanoma = test system: SK-MEL-28 melanoma
COLO 205 colon = test system: COLO 205 colon
SK-MEL-5 melanoma = test system: SK-MEL-5 melanoma
MDA-MB-435 = test system: MDA-MB-435
MALME-3M melanoma = test system: MALME-3M melanoma
SK-MEL-2 melanoma = test system: SK-MEL-2 melanoma
BT-549 breast = test system: BT-549 breast
MDA-MB-231 breast = test system: MDA-MB-231 breast
IGROV1 ovarian = test system: IGROV1 ovarian
OVCAR-8 ovarian = test system: OVCAR-8 ovarian
HS 578T breast = test system: HS 578T breast
SW-620 colon = test system: SW-620 colon
U251 CNS = test system: U251 CNS
MOLT-4 leukemia = test system: MOLT-4 leukemia
SK-OV-3 ovarian = test system: SK-OV-3 ovarian
OVCAR-5 ovarian = test system: OVCAR-5 ovarian
NCI-H226 lung = test system: NCI-H226 lung
A549 NSCLC = test system: A549 NSCLC
T-47D breast = test system: T-47D breast
DU-145 prostate = test system: DU-145 prostate
K-562 leukemia = test system: K-562 leukemia

SMILES: Fc1ccc(-c2nc3n(c2-c2ccncc2)CCS3)cc1
- GI50 (SF-295 CNS): > 25 µM
- TGI (SF-295 CNS): > 25 µM
- GI50 (HCT-15 colon): > 25 µM
- TGI (HCT-15 colon): > 25 µM
- GI50 (CAKI-1 renal): > 25 µM
- TGI (CAKI-1 renal): > 25 µM
- GI50 (SR leukemia): > 25 µM
- TGI (SR leukemia): > 25 µM
- GI50 (RPMI-8226 leukemia): > 25 µM
- TGI (RPMI-8226 leukemia): > 25 µM
- GI50 (ACHN renal): > 25 µM
- TGI (ACHN renal): > 25 µM
- GI50 (LOX IMVI melanoma): > 25 µM
- TGI (LOX IMVI melanoma): > 25 µM
- GI50 (HL-60(TB) leukemia): > 25 µM
- TGI (HL-60(TB) leukemia): > 25 µM
- GI50 (SF-268 CNS): > 25 µM
- TGI (SF-268 CNS): > 25 µM
- GI50 (OVCAR-4 ovarian): 9.67 µM
- TGI (OVCAR-4 ovarian): > 25 µM
- GI50 (SNB-75 CNS): > 25 µM
- TGI (SNB-75 CNS): > 25 µM
- GI50 (NCI-H460 lung): > 25 µM
- TGI (NCI-H460 lung): > 25 µM
- GI50 (NCI-H522 lung): > 25 µM
- TGI (NCI-H522 lung): > 25 µM
- GI50 (EKVX NSCLC): > 25 µM
- TGI (EKVX NSCLC): > 25 µM
- GI50 (HCC-2998 colon): > 25 µM
- TGI (HCC-2998 colon): > 25 µM
- GI50 (HCT-116 colon): > 25 µM
- TGI (HCT-116 colon): > 25 µM
- GI50 (SN12C renal): > 25 µM
- TGI (SN12C renal): > 25 µM
- GI50 (UACC-257 melanoma): > 25 µM
- TGI (UACC-257 melanoma): > 25 µM
- GI50 (SF-539 CNS): > 25 µM
- TGI (SF-539 CNS): > 25 µM
- GI50 (TK-10 renal): > 25 µM
- TGI (TK-10 renal): > 25 µM
- GI50 (786-0 renal): > 25 µM
- TGI (786-0 renal): > 25 µM
- GI50 (KM12 colon): > 25 µM
- TGI (KM12 colon): > 25 µM
- GI50 (HOP-92 NSCLC): > 25 µM
- TGI (HOP-92 NSCLC): > 25 µM
- GI50 (NCI/ADR-RES ovarian): > 25 µM
- TGI (NCI/ADR-RES ovarian): > 25 µM
- GI50 (SNB-19 CNS): > 25 µM
- TGI (SNB-19 CNS): > 25 µM
- GI50 (UACC-62 melanoma): > 25 µM
- TGI (UACC-62 melanoma): > 25 µM
- GI50 (HT29 colon): > 25 µM
- TGI (HT29 colon): > 25 µM
- GI50 (UO-31 renal): 8.26 µM
- TGI (UO-31 renal): > 25 µM
- GI50 (MCF7 breast): > 25 µM
- TGI (MCF7 breast): > 25 µM
- GI50 (M14 melanoma): > 25 µM
- TGI (M14 melanoma): > 25 µM
- GI50 (OVCAR-3 ovarian): > 25 µM
- TGI (OVCAR-3 ovarian): > 25 µM
- GI50 (A498 renal): > 25 µM
- TGI (A498 renal): > 25 µM
- GI50 (HOP-62 NSCLC): > 25 µM
- TGI (HOP-62 NSCLC): > 25 µM
- GI50 (CCRF-CEM leukemia): > 25 µM
- TGI (CCRF-CEM leukemia): > 25 µM
- GI50 (NCI-H23 lung): > 25 µM
- TGI (NCI-H23 lung): > 25 µM
- GI50 (RXF 393 renal): > 16.5 µM
- TGI (RXF 393 renal): > 25 µM
- GI50 (PC-3 prostate): > 25 µM
- TGI (PC-3 prostate): > 25 µM
- GI50 (SK-MEL-28 melanoma): > 25 µM
- TGI (SK-MEL-28 melanoma): > 25 µM
- GI50 (COLO 205 colon): > 25 µM
- TGI (COLO 205 colon): > 25 µM
- GI50 (SK-MEL-5 melanoma): > 18 µM
- TGI (SK-MEL-5 melanoma): > 25 µM
- GI50 (MDA-MB-435): > 25 µM
- TGI (MDA-MB-435): > 25 µM
- GI50 (MALME-3M melanoma): > 25 µM
- TGI (MALME-3M melanoma): > 25 µM
- GI50 (SK-MEL-2 melanoma): > 25 µM
- TGI (SK-MEL-2 melanoma): > 25 µM
- GI50 (BT-549 breast): > 25 µM
- TGI (BT-549 breast): > 25 µM
- GI50 (MDA-MB-231 breast): > 25 µM
- TGI (MDA-MB-231 breast): > 25 µM
- GI50 (IGROV1 ovarian): > 25 µM
- TGI (IGROV1 ovarian): > 25 µM
- GI50 (OVCAR-8 ovarian): > 25 µM
- TGI (OVCAR-8 ovarian): > 25 µM
- GI50 (HS 578T breast): > 25 µM
- TGI (HS 578T breast): > 25 µM
- GI50 (SW-620 colon): > 25 µM
- TGI (SW-620 colon): > 25 µM
- GI50 (U251 CNS): > 25 µM
- TGI (U251 CNS): > 25 µM
- GI50 (MOLT-4 leukemia): > 25 µM
- TGI (MOLT-4 leukemia): > 25 µM
- GI50 (SK-OV-3 ovarian): > 25 µM
- TGI (SK-OV-3 ovarian): > 25 µM
- GI50 (OVCAR-5 ovarian): > 25 µM
- TGI (OVCAR-5 ovarian): > 25 µM
- GI50 (NCI-H226 lung): > 16.4 µM
- TGI (NCI-H226 lung): > 25 µM
- GI50 (A549 NSCLC): > 25 µM
- TGI (A549 NSCLC): > 25 µM
- GI50 (T-47D breast): 13.3 µM
- TGI (T-47D breast): > 25 µM
- GI50 (DU-145 prostate): > 25 µM
- TGI (DU-145 prostate): > 25 µM
- GI50 (K-562 leukemia): > 25 µM
- TGI (K-562 leukemia): > 25 µM
